Here are results for one substance from patent US12503426B2, “Synthetic derivatives of oleoyl-lysophosphatidylinositol (oleoyl-LPI) and uses thereof” (LIPOVEXA SRL, priority 2017, dated 2025).

For test [1], the system named is colonic cells of the GI tract obtained from guinea pig. In words: Ex vivo GLP-1 biosynthesis and secretion, guinea pig GI tract cells. Type of test: cell-based. A digest of the protocol:
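Colonic/rectal crypts and cells from a pregnant guinea pig, collagenase-P digested and cultured one day on Matrigel, then exposed 2 h at 37 °C in serum-free DMEM with KR-62436 10 μg/ml and compound (20 μM, quadruplicate; EC50 also determined). Active GLP-1 in supernatant measured by ELISA, normalised to DMSO control.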

The subject of the next test is NCI-H716 cells. The test is described as follows: GLP-1 secretion by NCI-H716 cells (Examples 2-8). The conditions noted are these: 2 hours. Type of test: cell-based, human. The method, then: NCI-H716 cells were maintained in 75 cm^2 tissue culture flasks (Corning) in RPMI 1640 media containing 2.0 mM L-glutamine, 1.5 g/L sodium bicarbonate, 10 mM HEPES buffer, 1.0 mM sodium pyruvate, and 4.5 g/L glucose and supplemented with 10% FBS at a 37° C. and 5% CO2. When plating for experiment, cell adhesion and endocrine differentiation were initiated by growing cells in dishes coated with growth factor reduced Matrigel diluted at the ratio of 1:2 (Becton Dickinson, Bedford, MA) in high-glucose DMEM, 10% FBS, 2 mM glutamine, 100 IU/ml penicillin, and 100 μg/ml streptomycin as described previously by De Bruine, a P., Dinjens, W. N., van der Linden, E. P., Pijls, M. M., Moerkerk, P. T., & Bosman, F. T. (1993) The American Journal of Pathology, Vol 142(3), pp 773-782, the disclosure of which is incorporated herein in its entirety by reference.
(§1) Approximately 80,000 Glutag cells were plated in poly-L-lysine-coated 24-well culture plates and grown to about 80% confluence. NCI-H716 cells were seeded on growth factor reduced Matrigel™ (Becton Dickinson, Bedford, MA) in DMEM medium, supplemented with 10% FBS the day before the experiment. For NCI-H716 cells, approximately 25,000 cells were needed for this secretion experiment in order to have good stimulation with lower basal GLP-1 secretion. In brief, Glutag and NCI-H716 cells were washed twice and then incubated for 2 h with FBS-free DMEM containing 1% (M:C) alone (negative control), 10 μM forskolin as positive control (Sigma-Aldrich), or with different concentrations of Oleoyl-LPI. M:C was used as a solvent to prepare stock solutions of fatty acid derivatives and inhibitors. For secretion experiments, medium and cells were collected separately.
In separate studies, GLUTag or NCI-H716 cells were pre-treated for 1 hour with medium alone (1% DMSO, negative control), PD98059 (50 μM; Sigma Chemical Co.), H89 (10 μM; Santa Cruz) followed by treatment with oleoyl-LPI (20 μM), OEA (10 μM), AR231453(1 μM), PMA (10 μM) or forskolin (10 μM, positive control) in the presence of inhibitors, as appropriate, for about 2 h. Medium GLP-1 secretion was calculated as total GLP-1 content of medium normalised for the basal secretion of the control.
In order to investigate the role of different LPI species in enteroendocrine cells, murine (Glutag) and human (NCI-H716) L-cells were stimulated with the following different species of LPI: Arachidonyl-LPI, Stearoyl-LPI, Heptadecenoyl-LPI and oleoyl-LPI, as well as with OEA and LPC. Experiments were performed in duplicate, n=4 and the level of total GLP-1 was measured by ELISA.

Test [2] concerns Glutag and NCI-H761 cells. The test is described as follows: Dose response of GLP-1 release at different glucose concentrations. Type of test: cell-based. The conditions noted are these: 5 mM glucose, 2 hours, percentage of vehicle control. The method, then:
Panels A and B show results of dose response of GLP-1 release in different glucose concentration of 5 mM (panel A) and 10 mM (panel B). The dose response of GLP-1 released was normalised of number of cells measured in parallel. Glutag and […] cells were incubated with vehicle alone, oleoyl-LPI, OEA, LPC forskolin (10 μM) and PMA (1 μM) as positive control for 2 hours. Results were normalised as percentage of cell treated with vehicle (control). For panels A and B data are shown as means±SEM of n=3 from independent experiments performed in duplicates. Student t-test: *p<0.05, **P<0.01. Panel C show results of dose response of GLP-1 release in a glucose concentration of 20 mM.
as §1
To determine the effect of glucose in oleoyl-LPI induced GLP-1 secretion, the inventors conducted dose-response experiment in the presence of 5 mM and 10 mM glucose in the secretion medium with the results outlined in FIG. 2A and FIG. 2B.

By EC50 is commonly meant the concentration that produces a half-maximal response. Regarding “oleoyl-lysophosphatidylinositol [oleoyl-LPI]”, in test [1] (20 μM, 2 hours, standardized against DMSO control), the “GLP-1 biosynthesis and secretion ex vivo” value was “stimulated biosynthesis and secretion”. Moreover, in test [1] (ex vivo incubation 2 hours, quadruplicates), the EC50 came to 32.7 µM. The GLP-1 secretion worked out at 124±7.4% in the test on NCI-H716 cells (NCI-H716 cells, normalised as percentage of cells treated with vehicle (control)); 126±8% in test [2] (10 μM); 223±23% in test [2] (20 μM); 333±45% in test [2] (50 μM). Also, the “effect of down-regulation of GPR55 on GLP-1 secretion” value with NCI-H716 cells (siGPR55 transfected NCI-H716 cells, oleoyl-LPI 20 μM) is reported as “no effect on GLP-1 secretion”. In addition, the “GLP-1 secretion in siGPR119-transfected cells” value in the test on NCI-H716 cells (siGPR119 transfected NCI-H716 cells, oleoyl-LPI 20 μM) was “significantly reduced the GLP-1 secretion to the basal level”.
